Test system: bacteria in clinical bovine mastitis milk samples
Experiment: Combined bacteria identification and antimicrobial susceptibility test (colour of wells, MIC) on clinical bovine mastitis milk samples
Type: cell-based
Procedure: Clinical bovine mastitis milk samples were collected by a vet clinic in South Island, New Zealand. Samples were stored in the freezer for several months and shipped frozen to the testing facility. In this Example, the term “clinical” means that dairy cows had clinical symptoms of an udder infection e.g. cow behaved unusual, milk clots, swollen udder among other typical symptoms. Testing was executed in microwell plate comprising of 24 wells (3×8 wells).
In addition, 20 ul of clinical mastitis sample was added to each well with a laboratory pipette.
Abbreviations • 1. 80 ul GC+10 ul Tell: 80 ul Giolitti Cantoni base broth+10 ul Tellurite solution (1%); • 2. 80 ul TSB/Esc/Fer Cit: 80 ul Tryptic soy broth containing 0.25% Esculin and 0.125% Ammonium Ferric Citrate; • 3. 80 ul TSB/Esc/Fer Cit+10 ul Genta: 80 ul Tryptic soy broth containing 0.25% Esculin and 0.125% Ammonium Ferric Citrate+10 ul of Gentamycin solution 10 mg/ml; • 4. 80 ul McC/PR25: 80 ul MacConkey broth (single strength) containing 0.0125% phenol red; and • 5. 80 ul TSB/PR25: 80 ul Tryptic soy broth containing 0.0125% phenol red. Bacteria Identification
Columns A to C and rows 1 and 2 were used for bacteria identification. A1: coagulase positive Staph; A2: Staphylococci; B1: Strep group D; B2: Strep group D; C1: general enrichment media (gram+ and gram-bacteria); C2: coliform bacteria.
Column A3 to A8: serial dilution of benzyl penicillin as potassium. Column B3 to B8: serial dilution of ceftiofur as hydrochloride. Column C3 to C8: serial dilution of cloxacillin as sodium. Antibiotic concentrations are listed as free form ranging between 4 ug/ml to 0.05 ug/ml.
Minimum inhibitory substance concentration (MIC) is here defined as the concentration if a colour change occurs between two wells (one well remains red with drug concentration 1, the other one yellow with drug concentration 2, whereas drug concentration 1 is larger than drug concentration 2) then the MIC is the value of drug concentration 1.
Table 21 indicates the microwell plate configuration #1; Drugs: Benzylpenicillin as potassium; Cloxacillin as sodium; Ceftiofur as hydrochloride; Drug concentration in each well (A3 to C8) is based on 80 μl composition+10 μl drug solution+20 μl clinical mastitis milk sample and equivalent to listed drug concentration in μg/ml; 20 ul of clinical bovine mastitis milk sample was added to each well (A1 to C8).
In addition, each well received one drop of clinical sample from a transfer pipette which was on average about 35 mg. This was determined through weighing the well plate prior and after the addition of clinical mastitis samples. This weight was then divided by 24.
• 1. 80 ul GC+10 ul Tell: 80 ul Giolitti Cantoni base broth+10 ul Tellurite solution (1%); • 2. 80 ul TSB/Esc/Fer Cit: 80 ul Tryptic soy broth containing 0.25% Esculin and 0.125% Ammonium Ferric Citrate; • 3. 80 ul TSB/Esc/Fer Cit+10 ul Genta: 80 ul Tryptic soy broth containing 0.25% Esculin and 0.125% Ammonium Ferric Citrate+10 ul of Gentamycin solution 10 mg/ml; • 4. 80 ul McC/PR25: 80 ul MacConkey broth (single strength) containing 0.0125% phenol red; and • 5. 80 ul TSB/PR25: 80 ul Tryptic soy broth containing 0.0125% phenol red.
Columns A to C and rows 1 and 2 were used for bacteria identification. A1: coagulase positive Staph; A2: Staphylococci; B1: Strep Group D; B2: -; C1: general enrichment media (gram+ and gram-); C2: coliform bacteria.
Column A3 to A8: serial dilution of benzyl penicillin as potassium. Drug concentrations given as free form ranging between 4 ug/ml to 0.05 ug/ml. Column B3 to B8: serial dilution of ceftiofur as hydrochloride. Drug concentrations given as free form ranging between 4 ug/ml to 0.05 ug/ml. Column C3 to C8: serial dilution of cloxacillin as sodium. Drug concentrations given as free form ranging between 4 ug/ml to 0.05 ug/ml.

CC1(C)S[C@@H]2[C@H](NC(=O)Cc3ccccc3)C(=O)N2[C@H]1C(=O)O [benzyl penicillin]
Colour of media in each well (ID 5 to 8, T = 0 h (prior incubation, reference), plate configuration #2, drug 1 μg/ml): red | Colour of media in each well (ID 5 to 8, T = 0 h (prior incubation, reference), plate configuration #2, drug 2 μg/ml): red | Colour of media in each well (ID 5 to 8, T = 0 h (prior incubation, reference), plate configuration #2, drug 4 μg/ml): red | Colour of media in each well (ID 6, T = 23h, 37° C., plate configuration #2, drug 0.05 μg/ml (Table 31)): yellow | Colour of media in each well (ID 6, T = 23h, 37° C., plate configuration #2, drug 0.1 μg/ml (Table 31)): yellow | Colour of media in each well (ID 6, T = 23h, 37° C., plate configuration #2, drug 0.5 μg/ml (Table 31)): yellow | Colour of media in each well (ID 6, T = 23h, 37° C., plate configuration #2, drug 1 μg/ml (Table 31)): yellow | Colour of media in each well (ID 6, T = 23h, 37° C., plate configuration #2, drug 2 μg/ml (Table 31)): yellow | Colour of media in each well (ID 6, T = 23h, 37° C., plate configuration #2, drug 4 μg/ml (Table 31)): yellow | Colour of media in each well (ID 6, T~7 h, 37° C., plate configuration #2, Table 35, drug 0.05 μg/ml): yellow | Colour of media in each well (ID 6, T~7 h, 37° C., plate configuration #2, Table 35, drug 0.1 μg/ml): yellow | Colour of media in each well (ID 6, T~7 h, 37° C., plate configuration #2, Table 35, drug 0.5 μg/ml): yellow | Colour of media in each well (ID 6, T~7 h, 37° C., plate configuration #2, Table 35, drug 1 μg/ml): yellow | Colour of media in each well (ID 6, T~7 h, 37° C., plate configuration #2, Table 35, drug 2 μg/ml): yellow | Colour of media in each well (ID 6, T~7 h, 37° C., plate configuration #2, Table 35, drug 4 μg/ml): yellow | Colour of media in each well (ID 6, T~11 h, 37° C., plate configuration #2, Table 35, drug 0.05 μg/ml): yellow | Colour of media in each well (ID 6, T~11 h, 37° C., plate configuration #2, Table 35, drug 0.1 μg/ml): yellow | Colour of media in each well (ID 6, T~11 h, 37° C., plate configuration #2, Table 35, drug 0.5 μg/ml): yellow | Colour of media in each well (ID 6, T~11 h, 37° C., plate configuration #2, Table 35, drug 1 μg/ml): yellow | Colour of media in each well (ID 6, T~11 h, 37° C., plate configuration #2, Table 35, drug 2 μg/ml): yellow | Colour of media in each well (ID 6, T~11 h, 37° C., plate configuration #2, Table 35, drug 4 μg/ml): yellow | Colour of media in each well (ID 6, T~23 h, 37° C., plate configuration #2, Table 35, drug 0.05 μg/ml): yellow | Colour of media in each well (ID 6, T~23 h, 37° C., plate configuration #2, Table 35, drug 0.1 μg/ml): yellow | Colour of media in each well (ID 6, T~23 h, 37° C., plate configuration #2, Table 35, drug 0.5 μg/ml): yellow | Colour of media in each well (ID 6, T~23 h, 37° C., plate configuration #2, Table 35, drug 1 μg/ml): yellow | Colour of media in each well (ID 6, T~23 h, 37° C., plate configuration #2, Table 35, drug 2 μg/ml): yellow | Colour of media in each well (ID 6, T~23 h, 37° C., plate configuration #2, Table 35, drug 4 μg/ml): yellow | Colour of media in each well (ID 7, T = 23h, 37° C., plate configuration #2, drug 0.05 μg/ml): yellow | Colour of media in each well (ID 7, T = 23h, 37° C., plate configuration #2, drug 0.1 μg/ml): yellow | Colour of media in each well (ID 7, T = 23h, 37° C., plate configuration #2, drug 0.5 μg/ml): red | Colour of media in each well (ID 7, T = 23h, 37° C., plate configuration #2, drug 1 μg/ml): red | Colour of media in each well (ID 7, T = 23h, 37° C., plate configuration #2, drug 2 μg/ml): red | Colour of media in each well (ID 7, T = 23h, 37° C., plate configuration #2, drug 4 μg/ml): red | Colour of media in each well (ID 8, T = 23 h, 37° C., plate configuration #2, drug 0.05 μg/ml): red | Colour of media in each well (ID 8, T = 23 h, 37° C., plate configuration #2, drug 0.1 μg/ml): red | Colour of media in each well (ID 8, T = 23 h, 37° C., plate configuration #2, drug 0.5 μg/ml): red | Colour of media in each well (ID 8, T = 23 h, 37° C., plate configuration #2, drug 1 μg/ml): red | Colour of media in each well (ID 8, T = 23 h, 37° C., plate configuration #2, drug 2 μg/ml): red | Colour of media in each well (ID 8, T = 23 h, 37° C., plate configuration #2, drug 4 μg/ml): red | Colour of media in each well (Table 24, sample ID 2, 22 hours at 37° C., plate configuration #1, row 3 of serial dilution 4 ug/ml to 0.05 ug/ml): orange | Colour of media in each well (Table 24, sample ID 2, 22 hours at 37° C., plate configuration #1, row 4 of serial dilution 4 ug/ml to 0.05 ug/ml): orange | Colour of media in each well (Table 24, sample ID 2, 22 hours at 37° C., plate configuration #1, row 5 of serial dilution 4 ug/ml to 0.05 ug/ml): orange | Colour of media in each well (Table 24, sample ID 2, 22 hours at 37° C., plate configuration #1, row 6 of serial dilution 4 ug/ml to 0.05 ug/ml): yellow | Colour of media in each well (Table 24, sample ID 2, 22 hours at 37° C., plate configuration #1, row 7 of serial dilution 4 ug/ml to 0.05 ug/ml): yellow | Colour of media in each well (Table 24, sample ID 2, 22 hours at 37° C., plate configuration #1, row 8 of serial dilution 4 ug/ml to 0.05 ug/ml): yellow | MIC (clinical sample ID 1 (streptococci group D), 37° C. for 22 hours, plate configuration #1): 0.1 µg/mL | MIC (clinical sample ID 2 (streptococci group D, also coagulase positive Staph), 37° C. for 22 hours, plate configuration #1): > 4 µg/mL | MIC (clinical sample ID 4 (coagulase positive Staph), 37° C. for 22 hours, plate configuration #1): > 4 µg/mL | MIC (clinical sample ID 5 (streptococci group D), 37° C. for 23 hours, plate configuration #2): < 0.05 µg/mL | MIC (clinical sample ID 7 (coagulase positive Staph), 37° C. for 23 hours, plate configuration #2): 0.5 µg/mL | MIC (clinical sample ID 8 (coagulase negative Staph and Streptococci group D), 37° C. for 23 hours, plate configuration #2): < 0.05 µg/mL

Source: patent US10829796B2, “Bacteria identification and antimicrobial susceptibility test” (priority 2015, dated 2020)
